# Assay results: ChEMBL document CHEMBL1201862, “PubChem BioAssay data set” (2004)
#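 96-well plates; 48 h exposure; 5 concentrations. Endpoints by linear interpolation between flanking doses. Not reached: highest tested concentration assigned. The concentration for 50% growth inhibition is given as GI50.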 Active and inactive are the calls of the source. Cut-off read from the data, not from the text of the source: active = GI50 up to about 1.1 µM and inactive = higher.
# Experiments:
# Assay in all cases: NCI-60 cell line screen, 48 h
# SN12C = test system: SN12C
# MCF7 = test system: MCF7
# Malme-3M = test system: Malme-3M
# PC-3 = test system: PC-3
# HCT-15 = test system: HCT-15
# KM12 = test system: KM12
# MDA-N = test system: MDA-N
# HL-60 = test system: HL-60
# OVCAR-8 = test system: OVCAR-8
# K562 = test system: K562
# BT-549 = test system: BT-549
# M14 = test system: M14
# HOP-92 = test system: HOP-92
# COLO 205 = test system: COLO 205
# MDA-MB-435 = test system: MDA-MB-435
# HOP-62 = test system: HOP-62
# RPMI-8226 = test system: RPMI-8226
# HCC 2998 = test system: HCC 2998
# SK-OV-3 = test system: SK-OV-3
# NCI-H522 = test system: NCI-H522
# TK-10 = test system: TK-10
# OVCAR-4 = test system: OVCAR-4
# HT-29 = test system: HT-29
# 786-0 = test system: 786-0
# SF-268 = test system: SF-268
# ACHN = test system: ACHN
# OVCAR-5 = test system: OVCAR-5
# NCI-H23 = test system: NCI-H23
# MDA-MB-231 = test system: MDA-MB-231
# Hs-578T = test system: Hs-578T
# A498 = test system: A498
# SR = test system: SR
# DU-145 = test system: DU-145
# U-251 = test system: U-251
# SF-539 = test system: SF-539
# SW-620 = test system: SW-620
# SK-MEL-28 = test system: SK-MEL-28
# EKVX = test system: EKVX
# T47D = test system: T47D
# RXF 393 = test system: RXF 393
# SF-295 = test system: SF-295
# SNB-75 = test system: SNB-75
# SK-MEL-5 = test system: SK-MEL-5
# CCRF-CEM = test system: CCRF-CEM
# UO-31 = test system: UO-31
# SK-MEL-2 = test system: SK-MEL-2
# UACC-62 = test system: UACC-62
# OVCAR-3 = test system: OVCAR-3
# NCI-H226 = test system: NCI-H226
# NCI-H460 = test system: NCI-H460
# NCI/ADR-RES = test system: NCI/ADR-RES
# IGROV-1 = test system: IGROV-1
# MOLT-4 = test system: MOLT-4
# A549 = test system: A549
# CAKI-1 = test system: CAKI-1
# SNB-19 = test system: SNB-19
# UACC-257 = test system: UACC-257
# HCT-116 = test system: HCT-116
# LOX IMVI = test system: LOX IMVI
structure (smiles),measurement,setting,value
COc1cc2cc(C(=O)N3CC(CCl)c4ccc([N+](C)(C)Cc5ccc([N+](=O)[O-])cc5)cc43)[nH]c2c(OC)c1OC (stereo unspecified),GI50,SN12C,4.55 µM (inactive)
same,GI50,MCF7,2.14 µM (inactive)
same,GI50,Malme-3M,2.48 µM (inactive)
same,GI50,PC-3,2.09 µM (inactive)
same,GI50,HCT-15,3.2 µM
same,GI50,KM12,2.77 µM (inactive)
same,GI50,MDA-N,3.53 µM (inactive)
same,GI50,HL-60,2.04 µM (inactive)
same,GI50,OVCAR-8,1.75 µM (inactive)
same,GI50,K562,1.92 µM (inactive)
same,GI50,BT-549,5.74 µM (inactive)
same,GI50,M14,5.68 µM (inactive)
same,GI50,HOP-92,2.52 µM (inactive)
same,GI50,COLO 205,3.25 µM (inactive)
same,GI50,MDA-MB-435,4.54 µM (inactive)
same,GI50,HOP-62,4.92 µM (inactive)
same,GI50,RPMI-8226,2.01 µM (inactive)
same,GI50,HCC 2998,1.41 µM (inactive)
same,GI50,SK-OV-3,2.28 µM (inactive)
same,GI50,NCI-H522,0.552 µM (active)
same,GI50,TK-10,1.86 µM (inactive)
same,GI50,OVCAR-4,3.09 µM (inactive)
same,GI50,HT-29,2.03 µM (inactive)
same,GI50,786-0,2.32 µM (inactive)
same,GI50,SF-268,3.39 µM (inactive)
same,GI50,ACHN,2.29 µM (inactive)
same,GI50,OVCAR-5,3.87 µM (inactive)
same,GI50,NCI-H23,1.77 µM (inactive)
same,GI50,MDA-MB-231,7.55 µM (inactive)
same,GI50,Hs-578T,9.62 µM (inactive)
same,GI50,A498,1.76 µM (inactive)
same,GI50,SR,0.363 µM (active)
same,GI50,DU-145,3.05 µM (inactive)
same,GI50,U-251,2.71 µM (inactive)
same,GI50,SF-539,1.78 µM (inactive)
same,GI50,SW-620,1.5 µM (inactive)
same,GI50,SK-MEL-28,9.29 µM (inactive)
same,GI50,EKVX,5.69 µM (inactive)
same,GI50,T47D,3.48 µM (inactive)
same,GI50,RXF 393,1.36 µM (inactive)
same,GI50,SF-295,2.58 µM (inactive)
same,GI50,SNB-75,3.3 µM (inactive)
same,GI50,SK-MEL-5,1.71 µM (inactive)
same,GI50,CCRF-CEM,2.01 µM (inactive)
same,GI50,UO-31,2.1 µM (inactive)
same,GI50,SK-MEL-2,2.05 µM (inactive)
same,GI50,UACC-62,2.13 µM (inactive)
same,GI50,OVCAR-3,1.96 µM (inactive)
same,GI50,NCI-H226,2.82 µM (inactive)
same,GI50,NCI-H460,1.52 µM (inactive)
same,GI50,NCI/ADR-RES,1.71 µM (inactive)
same,GI50,IGROV-1,1.97 µM (inactive)
same,GI50,MOLT-4,2.1 µM (inactive)
same,GI50,A549,1.8 µM (inactive)
same,GI50,CAKI-1,2.05 µM (inactive)
same,GI50,SNB-19,8.53 µM (inactive)
same,GI50,UACC-257,1.83 µM (inactive)
same,GI50,HCT-116,1.83 µM (inactive)
Cc1nc2c(=O)[nH]c(=O)nc-2n(CCO)c1C,GI50,SN12C,> 100 µM (inactive)
same,GI50,MCF7,> 100 µM (inactive)
same,GI50,Malme-3M,> 100 µM (inactive)
same,GI50,PC-3,> 100 µM (inactive)
same,GI50,HCT-15,> 100 µM
same,GI50,KM12,> 100 µM (inactive)
same,GI50,MDA-N,> 100 µM (inactive)
same,GI50,OVCAR-8,> 100 µM (inactive)
same,GI50,K562,> 100 µM (inactive)
same,GI50,BT-549,> 100 µM (inactive)
same,GI50,M14,> 100 µM (inactive)
same,GI50,HOP-92,> 100 µM (inactive)
same,GI50,COLO 205,> 100 µM (inactive)
same,GI50,MDA-MB-435,> 100 µM (inactive)
same,GI50,LOX IMVI,> 100 µM (inactive)
same,GI50,HOP-62,> 100 µM (inactive)
same,GI50,RPMI-8226,> 100 µM (inactive)
same,GI50,HCC 2998,> 100 µM (inactive)
same,GI50,SK-OV-3,> 100 µM (inactive)
same,GI50,NCI-H522,> 100 µM (inactive)
same,GI50,TK-10,> 100 µM (inactive)
same,GI50,OVCAR-4,> 100 µM (inactive)
same,GI50,HT-29,> 100 µM (inactive)
same,GI50,786-0,> 100 µM (inactive)
same,GI50,SF-268,> 100 µM (inactive)
same,GI50,ACHN,> 100 µM (inactive)
same,GI50,OVCAR-5,> 100 µM (inactive)
same,GI50,NCI-H23,> 100 µM (inactive)
same,GI50,MDA-MB-231,> 100 µM (inactive)
same,GI50,Hs-578T,> 100 µM (inactive)
same,GI50,A498,> 100 µM (inactive)
same,GI50,SR,> 100 µM (inactive)
same,GI50,DU-145,> 100 µM (inactive)
same,GI50,U-251,> 100 µM (inactive)
same,GI50,SF-539,> 100 µM (inactive)
same,GI50,SW-620,> 100 µM (inactive)
same,GI50,SK-MEL-28,> 100 µM (inactive)
same,GI50,EKVX,> 100 µM (inactive)
same,GI50,T47D,> 100 µM (inactive)
same,GI50,RXF 393,> 100 µM (inactive)
same,GI50,SF-295,> 100 µM (inactive)
same,GI50,SNB-75,82 µM (inactive)
same,GI50,SK-MEL-5,> 100 µM (inactive)
same,GI50,CCRF-CEM,> 100 µM (inactive)
same,GI50,UO-31,> 100 µM (inactive)
same,GI50,SK-MEL-2,> 100 µM (inactive)
same,GI50,UACC-62,> 100 µM (inactive)
same,GI50,OVCAR-3,> 100 µM (inactive)
same,GI50,NCI-H226,> 100 µM (inactive)
same,GI50,NCI-H460,> 100 µM (inactive)
same,GI50,NCI/ADR-RES,> 100 µM (inactive)
same,GI50,IGROV-1,> 100 µM (inactive)
same,GI50,MOLT-4,> 100 µM (inactive)
same,GI50,A549,> 100 µM (inactive)
same,GI50,CAKI-1,> 100 µM (inactive)
same,GI50,SNB-19,> 100 µM (inactive)
same,GI50,UACC-257,> 100 µM (inactive)
same,GI50,HCT-116,> 100 µM (inactive)
